System: UPEC strain UTI89
Experiment: Microdilution bactericidal assay of recombinant antimicrobial peptides (CFU count, MIC)
Format: cell-based, Escherichia coli
Settings: for bactericidal activity toward UPEC in vitro (in words): UTI89, recombinant peptide, microdilution assay; for minimum inhibition concentration (MIC), lowest peptide concentration inhibiting growth of 90% of the inoculum: UTI89 10^5 CFU, 0.3125-10 µM peptide in 50 µl 0.1X PBS, 3 hours at 37°C, then plated overnight on LB, CFU versus untreated bacteria
Procedure: Recombinant mBD-3 was synthesized in E. coli (5987-BD, R&D Systems, Minneapolis, MN). Recombinant mBD-14 was synthesized as a mature peptide in E. coli and purified as described. Antimicrobial activity of recombinant peptides was evaluated by microdilution assay. Briefly, UTI89 bacteria (10^5 CFU) were incubated with 0.3125, 0.625, 1.25, 2.5, 5, or 10 µM of mBD-3 or mBD-14 in 50 µl 0.1X PBS buffer for 3 hours at 37°C, then plated overnight on LB at 37°C. Next, the number of CFU at each concentration of peptide was determined. Using untreated bacteria as baseline, the minimum inhibition concentration (MIC) was identified by the lowest peptide concentration inhibiting growth of 90% of the inoculum as described previously. Sensitivity of the UTI89 bacterial strain to killing by antimicrobial peptides was verified with the use of recombinant human RNase 7, yielding MIC of 0.2-0.4 µM, consistent with published data[24].

Row | Molecule | bactericidal activity toward UPEC in vitro (in words) | minimum inhibition concentration (MIC), lowest peptide concentration inhibiting growth of 90% of the inoculum [µM]
1 | mBD-14: Recombinant mBD-14 synthesized as a mature peptide in E. coli and purified; protein encoded by Defb14 (FLPKTLRKFFCRIRGGRCAVLNCLGKEEQIGRCSNSGRKCCRKKK; UniProt Q7TNV9 23-67, looked up) | dose-dependent bactericidal activity | –
2 | mBD-3: Recombinant mBD-3 synthesized in E. coli (5987-BD, R&D Systems); protein encoded by Defb3 (KKINNPVSCLRKGGRCWNRCIGNTRQIGSCGVPFLKCCKRK; UniProt Q9WTL0 23-63, looked up) | dose-dependent bactericidal activity | 1.25 to 2.5
3 | RNase 7: Recombinant human RNase 7, used to verify sensitivity of UTI89 to killing by antimicrobial peptides (protein, UniProt Q9H1E1 29-156, looked up) Ribonuclease 7: KPKGMTSSQWFKIQHMQPSPQACNSAMKNINKHTKRCKDLNTFLHEPFSSVAATCQTPKIACKNGDKNCHQSHGAVSLTMCKLTSGKHPNCRYKEKRQNKSYVVACKPPQKKDSQQFHLVPVHLDRVL | – | 0.2 to 0.4
